Measurements taken from ChEMBL document CHEMBL2074384, “Reduced folate derivatives are endogenous substrates for cMOAT in rats” (Am J Physiol, 1998).
Blank lines part the entries; values can stand above or below the molecule they belong to.

Experiments:
[1] = target: T1, ATP-binding cassette sub-family C member 2 (Rattus norvegicus, UniProt Q63120); assay: TP_TRANSPORTER: inhibition of 5-methyltetrahydrofolate uptake in bile canalicular membrane vesicles from SD rat; format: functional, cell membranes, Sprague-Dawley, Bile canalicular membrane vesicle
[2] = target: T1, ATP-binding cassette sub-family C member 2; assay: TP_TRANSPORTER: inhibition of DNP-SG uptake in bile canalicular membrane vesicles from SD rat; format: functional, cell membranes, Sprague-Dawley, Bile canalicular membrane vesicle
[3] = substrate: CN1c2c(nc(N)[nH]c2=O)NC[C@@H]1CNc1ccc(C(=O)N[C@@H](CCC(=O)O)C(=O)O)cc1; assay: cells, lysate or membranes named

Molecule: N[C@@H](CCC(=O)N[C@H](CSc1ccc([N+](=O)[O-])cc1[N+](=O)[O-])C(=O)NCC(=O)O)C(=O)O
Ki [1]: 34.5 µM

Molecule: Nc1nc2c(c(=O)[nH]1)N1CN(c3ccc(C(=O)N[C@@H](CCC(=O)O)C(=O)O)cc3)CC1CN2 (stereo not given in full) [FOLITIXORIN]
Ki [2]: 269 µM

B1: ATP-binding cassette sub-family C member 2 (Rattus norvegicus) (protein)
chain: MDKFCNSTFWDLSLLESPEADLPLCFEQTVLVWIPLGFLWLLAPWQLYSVYRSRTKRSSITKFYLAKQVFVVFLLILAAIDLSLALTEDTGQATVPPVRYTNPILYLCTWLLVLAVQHSRQWCVRKNSWFLSLFWILSVLCGVFQFQTLIRALLKDSKSNMAYSYLFFVSYGFQIVLLILTAFSGPSDSTQTPSVTASFLSSITFSWYDRTVLKGYKHPLTLEDVWDIDEGFKTRSVTSKFEAAMTKDLQKARQAFQRRLQKSQRKPEATLHGLNKKQSQSQDVLVLEEAKKKSEKTTKDYPKSWLIKSLFKTFHVVILKSFILKLIHDLLVFLNPQLLKLLIGFVKSSNSYVWFGYICAILMFAVTLIQSFCLQSYFQHCFVLGMCVRTTVMSSIYKKALTLSNLARKQYTIGETVNLMSVDSQKLMDATNYMQLVWSSVIQITLSIFFLWRELGPSILAGVGVMVLLIPVNGVLATKIRNIQVQNMKNKDKRLKIMNEILSGIKILKYFAWEPSFQEQVQGIRKKELKNLLRFGQLQSLLIFILQITPILVSVVTFSVYVLVDSANVLNAEKAFTSITLFNILRFPLSMLPMVTSSILQASVSVDRLERYLGGDDLDTSAIRRVSNFDKAVKFSEASFTWDPDLEATIQDVNLDIKPGQLVAVVGTVGSGKSSLVSAMLGEMENVHGHITIQGSTAYVPQQSWIQNGTIKDNILFGSEYNEKKYQQVLKACALLPDLEILPGGDMAEIGEKGINLSGGQKQRVSLARAAYQDADIYILDDPLSAVDAHVGKHIFNKVVGPNGLLAGKTRIFVTHGIHFLPQVDEIVVLGKGTILEKGSYRDLLDKKGVFARNWKTFMKHSGPEGEATVNNDSEAEDDDDGLIPTMEEIPEDAASLAMRRENSLRRTLSRSSRSSSRRGKSLKNSLKIKNVNVLKEKEKEVEGQKLIKKEFVETGKVKFSIYLKYLQAVGWWSILFIILFYGLNNVAFIGSNLWLSAWTSDSDNLNGTNNSSSHRDMRIGVFGALGLAQGICLLISTLWSIYACRNASKALHGQLLTNILRAPMRFFDTTPTGRIVNRFSGDISTVDDLLPQTLRSWMMCFFGIAGTLVMICMATPVFAIIIIPLSILYISVQVFYVATSRQLRRLDSVTKSPIYSHFSETVTGLPIIRAFEHQQRFLAWNEKQIDINQKCVFSWITSNRWLAIRLELVGNLVVFCSALLLVIYRKTLTGDVVGFVLSNALNITQTLNWLVRMTSEAETNIVAVERISEYINVENEAPWVTDKRPPADWPRHGEIQFNNYQVRYRPELDLVLKGITCNIKSGEKVGVVGRTGAGKSSLTNCLFRILESAGGQIIIDGIDVASIGLHDLRERLTIIPQDPILFSGSLRMNLDPFNKYSDEEVWRALELAHLRSFVSGLQLGLLSEVTEGGDNLSIGQRQLLCLGRAVLRKSKILVLDEATAAVDLETDSLIQTTIRKEFSQCTVITIAHRLHTIMDSDKIMVLDNGKIVEYGSPEELLSNRGSFYLMAKEAGIENVNHTEL
Km [3]: 126 µM

The next lines start with the values.

Ki [2]: 121 µM
Molecule: CN1c2c(nc(N)[nH]c2=O)NC[C@@H]1CNc1ccc(C(=O)N[C@@H](CCC(=O)O)C(=O)O)cc1 [LEVOMEFOLIC ACID]

Ki [2]: 358 µM
Molecule: Nc1nc2c(c(=O)[nH]1)NC(CNc1ccc(C(=O)N[C@@H](CCC(=O)O)C(=O)O)cc1)CN2 (stereo not given in full) [TETRAHYDROFOLATE]
